The results in this text go back to publication PMC10418426, “A Comprehensive Technology Platform for the Rapid Discovery of Peptide Inhibitors against SARS-CoV-2 Pseudovirus Infection” (International Journal of Molecular Sciences, 2023).

The experiment concerns the target T1, Wuhan variant RBD-Fc / ACE2 interaction (Homo sapiens, UniProt Q9BYF1).
T1 construct: purchased RayBiotech
As to the kind of experiment: biochemical. Conditions: read-out: percentage of inhibition of RBD binding to ACE2.

Starred links: 1 amine or outer side, 2 acyl side, 3 side chain; linkers in the order of their positions; H or OH if unused. Positions of bridges follow the written chain, without caps; N, C: chain ends. Residues, ends and D or L forms follow the SMILES beside them. mXylylene = c1cc(C[*:1])cc(C[*:2])c1

Take `C[C@@H](O)[C@@H]1NC(=O)[C@@H]2CCCN2C(=O)[C@H](CCC(N)=O)NC(=O)[C@@H](N)CSCc2cccc(c2)CSC[C@@H](C(N)=O)NC(=O)[C@H](CCC(N)=O)NC(=O)[C@H](Cc2c[nH]c3ccccc23)NC(=O)CNC(=O)[C@H](CCCCN)NC(=O)CNC(=O)[C@H](CC(N)=O)NC1=O` [c9_05] (H-CQPTNGKGWQC-NH2; linker 1-11 via mXylylene): the inhibition at 100 µM stood at 78%.

In general, inhibition refers to the change of the read-out against control, counted positive when it falls.
